System: IL-1β
Test: In vitro IL-1β inhibition in PMA-differentiated, LPS-primed, ATP-stimulated THP1 cells
Format: cell-based
Settings: Homo sapiens, THP-1; THP1 monocytes differentiated with PMA, primed with 500 ng/ml LPS 4 h, compound 30 min, 5 mM ATP 1 hr; IL-1b in supernatant; read-out: invitro IL-1β inhibitory activity (IC50)
Protocol: THP1 monocytes were differentiated with PMA (100 ng/ml) and incubated at 37° C. for 20 hrs in presence of 5% CO2. 2×10^5 differentiated cells were plated per well of 96 well tissue culture plates. The cells were primed using 500 ng/ml Lipopolysaccharide and incubating for 4 h under the same condition. The cells were then treated with various concentrations of the compounds for 30 min followed by treatment with 5 mM ATP for 1 hr. The supernatants were collected and analyzed by IL-1b (Mabtech Cat #3415-1H-20) or TNF-a (Mabtech; Cat #3510-1H-20) detection kit. The data were analyzed using GraphPad Prism V7.0. Dose Response Curve (DRC) was constructed to determine the IC50 value by fitting percentage cell survival data to the GraphPad Prism using nonlinear regression analysis.

Compound | IC50
CC(C)N(C)C/C=C/S(=O)(=O)NC(=O)Nc1c2c(cc3c1CCC3)CCC2 [Example 5, (E)-N-((1,2,3,5,6,7-hexahydro-s-indacen-4-yl)carbamoyl)-3-(isopropyl(methyl)amino)prop-1-ene-1-sulfonamide] | 20 nM
O=C(Nc1c2c(cc3c1CCC3)CCC2)NS(=O)(=O)/C=C/CN1CCCC1 [Example 18, (E)-N-((1,2,3,5,6,7-hexahydro-s-indacen-4-yl)carbamoyl)-3-(pyrrolidin-1-yl)prop-1-ene-1-sulfonamide] | 6.6 nM
CC(C)CN(C)C(C)(C)/C=C/S(=O)(=O)NC(=O)Nc1c2c(cc3c1CCC3)CCC2 [Example 35, (E)-N-((1,2,3,5,6,7-hexahydro-s-indacen-4-yl)carbamoyl)-3-(isobutyl(methyl)amino)-3-methylbut-1-ene-1-sulfonamide] | 11 nM
CC(C)NC/C=C/S(=O)(=O)NC(=O)Nc1c2c(cc3c1CCC3)CCC2 [Example 1, (E)-N-((1,2,3,5,6,7-hexahydro-s-indacen-4-yl)carbamoyl)-3-(isopropylamino)prop-1-ene-1-sulfonamide] | 43 nM
CCN(C)C(C)(C)/C=C/S(=O)(=O)NC(=O)Nc1c2c(cc3c1CCC3)CCC2 [Example 20, (E)-3-(ethyl(methyl)amino)-N-((1,2,3,5,6,7-hexahydro-s-indacen-4-yl)carbamoyl)-3-methylbut-1-ene-1-sulfonamide] | 9.9 nM
CN(C1CCC1)C(C)(C)/C=C/S(=O)(=O)NC(=O)Nc1c2c(cc3c1CCC3)CCC2 [Example 21, (E)-3-(cyclobutyl(methyl)amino)-N-((1,2,3,5,6,7-hexahydro-s-indacen-4-yl)carbamoyl)-3-methylbut-1-ene-1-sulfonamide] | 6 nM
CN(C)C(C)(C)/C=C/S(=O)(=O)NC(=O)Nc1c2c(cc3c1CCC3)CCC2 [Example 6, (E)-3-(dimethylamino)-N-((1,2,3,5,6,7-hexahydro-s-indacen-4-yl)carbamoyl)-3-methylbut-1-ene-1-sulfonamide] | 5.6 nM
CC(C)N(C)C(C)(C)/C=C/S(=O)(=O)NC(=O)Nc1c2c(cc3c1CCC3)CCC2 [Example 24, (E)-N-((1,2,3,5,6,7-hexahydro-s-indacen-4-yl)carbamoyl)-3-(isopropyl(methyl)amino)-3-methylbut-1-ene-1-sulfonamide] | 7.5 nM

Continued, values first:

IC50 | Compound
9.6 nM | CN(C)C/C=C/S(=O)(=O)NC(=O)Nc1c2c(cc3c1CCC3)CC=C2 [Example 36, (E)-3-(dimethylamino)-N-((1,2,3,7-tetrahydro-s-indacen-4-yl)carbamoyl)prop-1-ene-1-sulfonamide]
6.5 nM | CN(C)C(C)(C)/C=C/S(=O)(=NC#N)NC(=O)Nc1c2c(cc3c1CCC3)CCC2 (stereo not drawn) [Example 49, (E)-N′-cyano-3-(dimethylamino)-N-((1,2,3,5,6,7-hexahydro-s-indacen-4-yl)carbamoyl)-3-methylbut-1-ene-1-sulfonimidamide]
3.8 nM | CC(C)(/C=C/S(=O)(=NC#N)NC(=O)Nc1c2c(cc3c1CCC3)CCC2)NC(=O)OC(C)(C)C (stereo not drawn) [Example 47, tert-butyl (E)-(4-(N′-cyano-N-((1,2,3,5,6,7-hexahydro-s-indacen-4-yl)carbamoyl)sulfamidimidoyl)-2-methylbut-3-en-2-yl)carbamate]
12.6 nM | CC(C)(/C=C/S(=O)(=O)NC(=O)Nc1c2c(cc3c1CCC3)CCC2)N1CCCC1 [Example 42, (E)-N-((1,2,3,5,6,7-hexahydro-s-indacen-4-yl)carbamoyl)-3-methyl-3-(pyrrolidin-1-yl)but-1-ene-1-sulfonamide]

Reference: patent publication US12599616B2, “Subtituted sulfonylurea and sulfoximineurea derivatives” (Zydus Lifesciences Limited, priority 2020, dated 2026)
